Results reported in patent US20250073255A1, “USE OF FA-TYPE LIPID COMPOUNDS IN PREPARATION OF NUCLEIC ACID DELIVERY REAGENT AND RELATED PRODUCT” (BEIJING BAISHIKANG PHARMACEUTICAL TECHNOLOGY (BSJPHARMA) …, priority 2021, published 2025).

Test system: C57BL/6 male mice
Experiment: In vivo delivery study of lipid nucleic acid mixture (oral gavage, RT-qPCR of PGY-sRNA-26 in tissues)
Parameters: species or system mouse
Settings: for overall delivery efficacy: delivering nucleic acids into each tissue and blood tested: 100 μg lipid:10 nmol PGY-sRNA-26, all tissues and blood tested; for oral delivery of single-stranded sRNA nucleic acids into mouse blood / oral delivery of single-stranded sRNA nucleic acids into mouse brain tissue / oral delivery of single-stranded sRNA nucleic acids into mouse femur / oral delivery of single-stranded sRNA nucleic acids into mouse heart tissue / oral delivery of single-stranded sRNA nucleic acids into mouse intestinal tissue / oral delivery of single-stranded sRNA nucleic acids into mouse kidney tissue / oral delivery of single-stranded sRNA nucleic acids into mouse liver tissue / oral delivery of single-stranded sRNA nucleic acids into mouse lung tissue / oral delivery of single-stranded sRNA nucleic acids into mouse spleen tissue / oral delivery of single-stranded sRNA nucleic acids into mouse stomach tissue / oral delivery of single-stranded sRNA nucleic acids into mouse pancreatic tissue: 100 μg lipid:10 nmol PGY-sRNA-26, sampled after 12 hours; for oral delivery of single-stranded sRNA nucleic acids into mouse heart tissue: vs free uptake group; for oral delivery of single-stranded sRNA nucleic acids into mouse intestinal tissue: intestine; for oral delivery of single-stranded sRNA nucleic acids into mouse pancreatic tissue: pancreas
Experimental: 10 nmol of small RNA (as shown in Table 2) was dissolved in 400 μl of DEPC-treated water in a glass tube, 10 μl of the corresponding lipid stock solution was added such that the lipid mass in the system was 100 μg. The mixture was mixed thoroughly, heated in a 90° C. water bath for 15 minutes, and then cooled naturally to obtain the lipid nucleic acid mixture of lipid and small RNA.
C57BL/6 male mice, approximately 6 weeks old, weighing […], were obtained from Beijing Vital River Laboratory Animal Technology Co., Ltd. The mice were housed in the SPF-grade animal facility at the Animal Center of the Institute of Basic Medical Sciences, Chinese Academy of Medical Sciences. The mice were fasted for 12 hours before gavage administration.
The lipid nucleic acid mixture was prepared following the method described in Example 2. The resultant lipid nucleic acid mixture was orally administered to each mouse at a dose of 100 μg lipid:10 nmol single-stranded 3-methylated small RNA PGY-sRNA-26.
• 1) Blank group (n=4): mice were administered with 500 μl saline by gavage, this group served as a blank control; • 2) Free uptake group (n=4): mice were directly administered with small RNA PGY-sRNA-26 solution (10 nmol/mouse, 500 l) by gavage, this group served as a negative control; • 3) Lipid-treated group (n=4): mice were administered with 500 μl lipid nucleic acid mixture prepared in step 2 by gavage.
After 12 hours of gavage administration, 500 μl blood from the eyeball of each mouse was sampled, added to 1.5 ml Trizol Reagent LS (purchased from Invitrogen), thoroughly mixed for lysis. 3 ml of Trizol Reagent LSwas added to tissue samples and homogenized for complete lysis, wherein the sampled tissues include heart, liver, spleen, lung, kidney, stomach, intestine, brain, blood, femur, pancreas. RNAwas extracted from 1 ml of the blood or the tissue lysate following the steps below: • Centrifuge at 4° C., 12,000 rpm for 5 min, discard the precipitate, transfer Trizol to a new centrifuge tube; • Add chloroform at 200 μL chloroform/mL Trizol, shake well, stand at room temperature for 5 min; • Centrifuge at 4° C., 12,000 rpm for 15 min; • Take the upper aqueous phase to another centrifuge tube, add isopropanol at 0.4 mL isopropanol/mL Trizol, mix well, and stand at low temperature for 10-20 min; • Centrifuge at 4° C., 12,000 rpm for 15 min, discard the supernatant, RNA precipitated at the bottom of the tube; • Add 1 mL of 75% ethanol, gently shake the centrifuge tube, suspend the precipitate; • Centrifuge at 4° C., 12,000 rpm for 15 min, discard the supernatant, add 1 mL of 75% ethanol, gently shake the centrifuge tube, suspend the precipitate; • Centrifuge at 4° C., 12,000 rpm for 15 min, discard the supernatant, air-dry at room temperature, dissolve RNA samples in 50 μL RNase-free H2O, measure OD value to quantify RNA concentration. 3.3 Reverse Transcription of sRNA to cDNA:
sRNA was reverse transcribed to cDNA using the High-Capacity cDNA Reverse Transcription Kit (Applied Biosystems, cat. no. 4368813) by stem-loop method (see, e.g., “Real-time quantification of microRNAs by stem-loop RT-PCR, Nucleic Acids Res. 2005 Nov. 27; 33(20):e179”, incorporated herein by reference). The reverse transcription system is as follows: Template RNA (200 ng/μL) 10 μL, 10×RT Buffer 2.0 μL, 25×dNTP Mix (100 mM) 0.8 μL, U6 RT stem-loop primer (10 μM) 2.0 μL, PGY-sRNA-26 RT stem-loop primer (10 μM) 2.0 μL, MultiScribe™ Reverse Transcriptase (50 U/μL) 1.0 μL, RNAse Inhibitor (40 U/μL) 1.0 μL, nuclease-free H2O 1.2 μL. After transient centrifugation, the reverse transcription system was placed in a PCR machine with the following reaction conditions: (1) 25° C., 10 min; (2) 37° C., 120 min; (3) 85° C., 5 min; (4) 4° C., stop reaction. After the reaction, add 20 μL RNAse-free ddH2O, adjust the final volume to 40 μL. […]

For `CCCCCCCCCCCCCCCC(N)=O` [Lipid 599, hexadecanamide], the “overall delivery efficacy: delivering nucleic acids into each tissue and blood tested” value was “best delivery efficacy”, the “oral delivery of single-stranded sRNA nucleic acids into mouse blood” value was “can effectively orally deliver” and the “oral delivery of single-stranded sRNA nucleic acids into mouse brain tissue” value was “can effectively orally deliver”. For the same molecule, the “oral delivery of single-stranded sRNA nucleic acids into mouse femur” value was “can effectively orally deliver”, the “oral delivery of single-stranded sRNA nucleic acids into mouse heart tissue” value was “can effectively orally deliver” and the “oral delivery of single-stranded sRNA nucleic acids into mouse intestinal tissue” value was “can effectively orally deliver”. For the same molecule, the “oral delivery of single-stranded sRNA nucleic acids into mouse kidney tissue” value was “can effectively orally deliver”, the “oral delivery of single-stranded sRNA nucleic acids into mouse liver tissue” value was “can effectively orally deliver” and the “oral delivery of single-stranded sRNA nucleic acids into mouse lung tissue” value was “can effectively orally deliver”. The “oral delivery of single-stranded sRNA nucleic acids into mouse spleen tissue” value was “can effectively orally deliver” and the “oral delivery of single-stranded sRNA nucleic acids into mouse stomach tissue” value was “can effectively orally deliver”.
For `C=C(C)CCOC(=O)CCCCCCCCCCCCCCCCCCC` [Lipid 814, 3-methylbut-3-enyl icosanoate], the “oral delivery of single-stranded sRNA nucleic acids into mouse blood” value was “can effectively orally deliver”, the “oral delivery of single-stranded sRNA nucleic acids into mouse brain tissue” value was “can effectively orally deliver” and the “oral delivery of single-stranded sRNA nucleic acids into mouse femur” value was “can effectively orally deliver”. For the same molecule, the “oral delivery of single-stranded sRNA nucleic acids into mouse heart tissue” value was “can effectively orally deliver”, the “oral delivery of single-stranded sRNA nucleic acids into mouse intestinal tissue” value was “can effectively orally deliver” and the “oral delivery of single-stranded sRNA nucleic acids into mouse kidney tissue” value was “can effectively orally deliver”. For the same molecule, the “oral delivery of single-stranded sRNA nucleic acids into mouse liver tissue” value was “can effectively orally deliver”, the “oral delivery of single-stranded sRNA nucleic acids into mouse lung tissue” value was “can effectively orally deliver” and the “oral delivery of single-stranded sRNA nucleic acids into mouse pancreatic tissue” value was “can effectively orally deliver”. The “oral delivery of single-stranded sRNA nucleic acids into mouse spleen tissue” value was “can effectively orally deliver” and the “oral delivery of single-stranded sRNA nucleic acids into mouse stomach tissue” value was “can effectively orally deliver”.
With `CCCCCCOC(=O)CCC` [Lipid 614, hexyl butanoate] the “oral delivery of single-stranded sRNA nucleic acids into mouse blood” value was “can effectively orally deliver”, the “oral delivery of single-stranded sRNA nucleic acids into mouse brain tissue” value was “can effectively orally deliver” and the “oral delivery of single-stranded sRNA nucleic acids into mouse femur” value was “can effectively orally deliver”. For the same molecule, the “oral delivery of single-stranded sRNA nucleic acids into mouse heart tissue” value was “can effectively orally deliver”, the “oral delivery of single-stranded sRNA nucleic acids into mouse intestinal tissue” value was “can effectively orally deliver” and the “oral delivery of single-stranded sRNA nucleic acids into mouse liver tissue” value was “can effectively orally deliver”. For the same molecule, the “oral delivery of single-stranded sRNA nucleic acids into mouse lung tissue” value was “can effectively orally deliver” and the “oral delivery of single-stranded sRNA nucleic acids into mouse spleen tissue” value was “can effectively orally deliver”.
`CCCCCCCCC(C)=O` [Lipid 604, decan-2-one] was tested, and the “overall delivery efficacy: delivering nucleic acids into each tissue and blood tested” value was “best delivery efficacy”, the “oral delivery of single-stranded sRNA nucleic acids into mouse blood” value was “can effectively orally deliver” and the “oral delivery of single-stranded sRNA nucleic acids into mouse brain tissue” value was “can effectively orally deliver”. For the same molecule, the “oral delivery of single-stranded sRNA nucleic acids into mouse femur” value was “can effectively orally deliver”, the “oral delivery of single-stranded sRNA nucleic acids into mouse heart tissue” value was “can effectively orally deliver” and the “oral delivery of single-stranded sRNA nucleic acids into mouse intestinal tissue” value was “can effectively orally deliver”. For the same molecule, the “oral delivery of single-stranded sRNA nucleic acids into mouse kidney tissue” value was “can effectively orally deliver”, the “oral delivery of single-stranded sRNA nucleic acids into mouse liver tissue” value was “can effectively orally deliver” and the “oral delivery of single-stranded sRNA nucleic acids into mouse lung tissue” value was “can effectively orally deliver”. For the same molecule, the “oral delivery of single-stranded sRNA nucleic acids into mouse spleen tissue” value was “can effectively orally deliver” and the “oral delivery of single-stranded sRNA nucleic acids into mouse stomach tissue” value was “can effectively orally deliver”.
In the case of `CCCCCCCCCC=O` [Lipid 615], the “oral delivery of single-stranded sRNA nucleic acids into mouse blood” value was “can effectively orally deliver”, the “oral delivery of single-stranded sRNA nucleic acids into mouse brain tissue” value was “can effectively orally deliver” and the “oral delivery of single-stranded sRNA nucleic acids into mouse femur” value was “can effectively orally deliver”. For the same molecule, the “oral delivery of single-stranded sRNA nucleic acids into mouse intestinal tissue” value was “can effectively orally deliver”, the “oral delivery of single-stranded sRNA nucleic acids into mouse liver tissue” value was “can effectively orally deliver” and the “oral delivery of single-stranded sRNA nucleic acids into mouse lung tissue” value was “can effectively orally deliver”. The “oral delivery of single-stranded sRNA nucleic acids into mouse spleen tissue” value was “can effectively orally deliver” and the “oral delivery of single-stranded sRNA nucleic acids into mouse stomach tissue” value was “can effectively orally deliver”.
In the case of `CCCC/C=C\CCCCCCCC(=O)OCCCCCCCCCCCCCCCCCCCCCC` [Lipid 817, docosyl (Z)-tetradec-9-enoate], the “oral delivery of single-stranded sRNA nucleic acids into mouse blood” value was “can effectively orally deliver”, the “oral delivery of single-stranded sRNA nucleic acids into mouse brain tissue” value was “can effectively orally deliver” and the “oral delivery of single-stranded sRNA nucleic acids into mouse femur” value was “can effectively orally deliver”. For the same molecule, the “oral delivery of single-stranded sRNA nucleic acids into mouse heart tissue” value was “can effectively orally deliver”, the “oral delivery of single-stranded sRNA nucleic acids into mouse intestinal tissue” value was “can effectively orally deliver” and the “oral delivery of single-stranded sRNA nucleic acids into mouse kidney tissue” value was “can effectively orally deliver”. For the same molecule, the “oral delivery of single-stranded sRNA nucleic acids into mouse liver tissue” value was “can effectively orally deliver”, the “oral delivery of single-stranded sRNA nucleic acids into mouse lung tissue” value was “can effectively orally deliver” and the “oral delivery of single-stranded sRNA nucleic acids into mouse pancreatic tissue” value was “can effectively orally deliver”. For the same molecule, the “oral delivery of single-stranded sRNA nucleic acids into mouse spleen tissue” value was “can effectively orally deliver” and the “oral delivery of single-stranded sRNA nucleic acids into mouse stomach tissue” value was “can effectively orally deliver”.
`CCCCCCCCCCCCCCCCCCCCCCC(=O)NCCO` [Lipid 519, N-(2-hydroxyethyl)tricosanamide] was tested, and the “oral delivery of single-stranded sRNA nucleic acids into mouse heart tissue” value was “can effectively orally deliver”, the “oral delivery of single-stranded sRNA nucleic acids into mouse kidney tissue” value was “can effectively orally deliver” and the “oral delivery of single-stranded sRNA nucleic acids into mouse lung tissue” value was “can effectively orally deliver”. The “oral delivery of single-stranded sRNA nucleic acids into mouse stomach tissue” value was “can effectively orally deliver”.
`CCCCCC1C(=O)CCC1CC(=O)O` (stereo not drawn) [Lipid 616, 2-(3-oxo-2-pentylcyclopentyl)-acetic acid] was tested, and the “oral delivery of single-stranded sRNA nucleic acids into mouse blood” value was “can effectively orally deliver”, the “oral delivery of single-stranded sRNA nucleic acids into mouse brain tissue” value was “can effectively orally deliver” and the “oral delivery of single-stranded sRNA nucleic acids into mouse femur” value was “can effectively orally deliver”. For the same molecule, the “oral delivery of single-stranded sRNA nucleic acids into mouse heart tissue” value was “can effectively orally deliver”, the “oral delivery of single-stranded sRNA nucleic acids into mouse intestinal tissue” value was “can effectively orally deliver” and the “oral delivery of single-stranded sRNA nucleic acids into mouse liver tissue” value was “can effectively orally deliver”. For the same molecule, the “oral delivery of single-stranded sRNA nucleic acids into mouse lung tissue” value was “can effectively orally deliver” and the “oral delivery of single-stranded sRNA nucleic acids into mouse spleen tissue” value was “can effectively orally deliver”.
